System: 485176-168-R4-J1-PDC spheroids with HUVEC/MSC, viability
Assay: Anticancer human tumor 485176-168-R4-J1-PDC patient-derived pancreatic adenocarcinoma cell line growth inhibition [GQUAD]
Conditions: for IC50: curve of first compound; for viability, T/C: stronger effect = lower value; active = viability on the fitted dose curve at most 10% of control; inactive = the rest
Procedure, shortened: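 Viability of tumor cells grown as complex spheroids with endothelial and stromal cells, exposed to drug combinations. Top concentration at or near clinical Cmax (else 10 microM), diluted in half-log increments.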

[1] = second compound 0.0316 µM, first compound 0.0316 µM
[2] = second compound 0.0316 µM, first compound 0.1 µM
[3] = second compound 0.0316 µM, first compound 0.316 µM
[4] = second compound 0.0316 µM, first compound 1 µM
[5] = second compound 0.0316 µM, first compound 3.16 µM
[6] = second compound 0.0316 µM, first compound 10 µM
[7] = second compound 0.1 µM, first compound 0.0316 µM
[8] = second compound 0.1 µM, first compound 0.1 µM
[9] = second compound 0.1 µM, first compound 0.316 µM
[10] = second compound 0.1 µM, first compound 1 µM
[11] = second compound 0.1 µM, first compound 3.16 µM
[12] = second compound 0.1 µM, first compound 10 µM
[13] = second compound 0.316 µM, first compound 0.0316 µM
[14] = second compound 0.316 µM, first compound 0.1 µM
[15] = second compound 0.316 µM, first compound 0.316 µM
[16] = second compound 0.316 µM, first compound 1 µM
[17] = second compound 0.316 µM, first compound 3.16 µM
[18] = second compound 0.316 µM, first compound 10 µM
[19] = second compound 1 µM, first compound 0.0316 µM
[20] = second compound 1 µM, first compound 0.1 µM
[21] = second compound 1 µM, first compound 0.316 µM
[22] = second compound 1 µM, first compound 1 µM
[23] = second compound 1 µM, first compound 3.16 µM
[24] = second compound 1 µM, first compound 10 µM
[25] = second compound 3.16 µM, first compound 0.0316 µM
[26] = second compound 3.16 µM, first compound 0.1 µM
[27] = second compound 3.16 µM, first compound 0.316 µM
[28] = second compound 3.16 µM, first compound 1 µM
[29] = second compound 3.16 µM, first compound 3.16 µM
[30] = second compound 3.16 µM, first compound 10 µM
[31] = second compound 10 µM, first compound 0.0316 µM
[32] = second compound 10 µM, first compound 0.1 µM
[33] = second compound 10 µM, first compound 0.316 µM
[34] = second compound 10 µM, first compound 1 µM
[35] = second compound 10 µM, first compound 3.16 µM
[36] = second compound 10 µM, first compound 10 µM
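Also: spheroids exposed to compounds for seven days before readout.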
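For viability, T/C in this document: percent viability relative to DMSO vehicle control wells as 100%.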

COc1cc(C2c3cc4c(cc3C(OC3OC5COC(C)OC5C(O)C3O)C3COC(=O)C23)OCO4)cc(OC)c1O (stereo unspecified) + Cc1[nH]c2ccc(F)cc2c1-c1nc2c3cccnc3c3ncccc3c2[nH]1
650 nM: IC50 (second compound 0.316 µM)
344 nM: IC50 (second compound 3.16 µM) | IC50 (second compound 10 µM)
inactive: viability, T/C [1] 89.3% | viability, T/C [2] 63% | viability, T/C [3] 43.9% | viability, T/C [4] 43% | viability, T/C [5] 29.5% | viability, T/C [6] 12.7% | viability, T/C [7] 92.3% | viability, T/C [8] 68.7% | viability, T/C [9] 37.5% | viability, T/C [10] 42.1% | viability, T/C [11] 24% | viability, T/C [12] 12.5% | viability, T/C [13] 86.1% | viability, T/C [14] 97.7% | viability, T/C [15] 52.9% | viability, T/C [16] 44.4% | viability, T/C [17] 29.4% | viability, T/C [18] 13% | viability, T/C [19] 89.6% | viability, T/C [20] 67.7% | viability, T/C [21] 47.4% | viability, T/C [22] 44.5% | viability, T/C [23] 24.9% | viability, T/C [24] 15.1% | viability, T/C [25] 77.3% | viability, T/C [26] 65.7% | viability, T/C [27] 43.6% | viability, T/C [28] 42.8% | viability, T/C [29] 28.7% | viability, T/C [30] 13% | viability, T/C [31] 96.2% | viability, T/C [32] 69.9% | viability, T/C [33] 44% | viability, T/C [34] 44.8% | viability, T/C [35] 24.9% | viability, T/C [36] 13.2%
317 nM: IC50 (second compound 0.0316 µM)
266 nM: IC50 (second compound 0.1 µM)
403 nM: IC50 (second compound 1 µM)

COc1ccc([C@@H](O)c2cc(-c3ncnc4cc(N5CCOCC5)ccc34)c(F)cc2Cl)nn1 + Cc1cnc(CNC(=O)c2c(=O)c3ccc(N4CCCN(C)CC4)nc3n3c2sc2ccccc23)cn1
< 31.6 nM: IC50 (second compound 3.16 µM) | IC50 (second compound 10 µM)
321 nM: IC50 (second compound 0.316 µM)
1100 nM: IC50 (second compound 0.0316 µM)
inactive: viability, T/C [1] 94.3% | viability, T/C [2] 91.4% | viability, T/C [3] 84.5% | viability, T/C [4] 48.5% | viability, T/C [5] 39.1% | viability, T/C [6] 24.4% | viability, T/C [7] 61.6% | viability, T/C [8] 67.9% | viability, T/C [9] 45.4% | viability, T/C [10] 47.9% | viability, T/C [11] 31.5% | viability, T/C [12] 18.7% | viability, T/C [13] 58.9% | viability, T/C [14] 64.7% | viability, T/C [15] 46.9% | viability, T/C [16] 36.9% | viability, T/C [17] 29.5% | viability, T/C [18] 16.1% | viability, T/C [19] 49.7% | viability, T/C [20] 54.6% | viability, T/C [21] 37.2% | viability, T/C [22] 45.5% | viability, T/C [23] 30.1% | viability, T/C [24] 14.2% | viability, T/C [25] 46% | viability, T/C [26] 43.7% | viability, T/C [27] 36.6% | viability, T/C [28] 36% | viability, T/C [29] 31.9% | viability, T/C [30] 14.2% | viability, T/C [31] 33.7% | viability, T/C [32] 39.7% | viability, T/C [33] 36.5% | viability, T/C [34] 29.1% | viability, T/C [35] 28.8% | viability, T/C [36] 14.9%
486 nM: IC50 (second compound 0.1 µM)
50.1 nM: IC50 (second compound 1 µM)

CC1COCCN1c1cc(-c2ccnn2C)c2ccnc(-c3ccn[nH]3)c2n1 (stereo unspecified) + CN(C)c1ccc(Nc2c3ccc(NC(=O)CCN4CCCC4)cc3nc3cc(NC(=O)CCN4CCCC4)ccc23)cc1
58 nM: IC50 (second compound 10 µM)
111 nM: IC50 (second compound 0.316 µM)
inactive: viability, T/C [1] 83.6% | viability, T/C [2] 47.7% | viability, T/C [3] 17% | viability, T/C [4] 11.2% | viability, T/C [5] 10.4% | viability, T/C [6] 11.1% | viability, T/C [7] 84.2% | viability, T/C [8] 54.9% | viability, T/C [9] 18.7% | viability, T/C [10] 11.8% | viability, T/C [11] 10.7% | viability, T/C [13] 81.2% | viability, T/C [14] 52.9% | viability, T/C [15] 20.2% | viability, T/C [16] 10.3% | viability, T/C [19] 87.5% | viability, T/C [20] 45.9% | viability, T/C [21] 23.8% | viability, T/C [22] 12.3% | viability, T/C [23] 11.4% | viability, T/C [25] 64.7% | viability, T/C [26] 43.5% | viability, T/C [27] 17.4% | viability, T/C [28] 12.6% | viability, T/C [29] 10.6% | viability, T/C [30] 11.3% | viability, T/C [31] 61.1% | viability, T/C [32] 39.8% | viability, T/C [33] 23.9% | viability, T/C [34] 13.3% | viability, T/C [35] 11.4%
89.8 nM: IC50 (second compound 1 µM)
active: viability, T/C [12] 8.57% | viability, T/C [17] 9.46% | viability, T/C [18] 10.1% | viability, T/C [24] 9.79% | viability, T/C [36] 9.08%
117 nM: IC50 (second compound 0.1 µM)
92.9 nM: IC50 (second compound 0.0316 µM)
70.2 nM: IC50 (second compound 3.16 µM)

Reference: PubChem BioAssay AID2060509 (Molecular Pharmacology Branch, DTP, NCI, 2025)
